Patent US12629358B2, “Compound used as RET kinase inhibitor and application thereof” (TYK MEDICINES, INC., priority 2019, dated 2026)
Substitutions are numbered along the chain they refer to. pIC50: −log10 of the molar value. Where two headings read alike, the source gives them in different places.

Columns and labels:
[1] = Metabolism test of drugs: plasma pharmacokinetics after intravenous and intragastric administration; format: in vivo; conditions: SD rats; for CL_obs / AUC(0-inf) / AUC(0-t) / half-life / MRT / Vd / Cmax / Tmax: plasma; for F: PO 10 mg/kg vs IV 2 mg/kg; for AUC(0-inf) / AUC(0-t) / half-life / MRT / Vd / Cmax / Tmax: male, rat; for MRT: read-out: MRTINF_ obs; for Vd: read-out: Vss
Description: Four small molecule compounds of BLU-667, compound C2, compound C4 and compound C8 were administered to SD rats by intravenous and intragastric administration respectively. Blood samples were collected at different time points to determine the concentration of drugs in plasma after administration and calculate the related pharmacokinetics parameters.
The vehicle of BLU-667, C2, C4 and C8 was 10% NMP+49% PEG400+1% Tween80+40% Water. The specific preparation method was as follows: proper amount of tested samples was weighed, dissolved in 10% NMP+49% PEG400+1% Tween80+40% Water, mixed well by vortex for later use.
LC-MS/MS was used by the analysis department of the experimental organization to detect and analyze the prepared solution of sample for test.
Healthy male SD rats were used in this research. Animal weight: 150-200 g. All animals fasted before administration, and resumed feeding 4 hours after administration.
Time points for blood collection were: • Intravenous administration (groups 1, 3 and 5): 0.0833, 0.25, 0.5, 1, 2, 4, 8, 12 and 24 hours after administration. (±2 min at time point ≤2 hr, ±15 min at other points.) • Oral administration: (groups 2, 4, 6 and 7): 0.25, 0.5, 1, 2, 4, 8, 12 and 24 hours after administration. (±2 m at time point […] at other points.)
About 0.1 mL of blood was collected from each animal through jugular vein every time, and EDTA or heparin sodium was used as anticoagulant. Blood samples were collected and placed on ice, and plasma was separated by centrifugation (centrifugation conditions: 5000 r/min, 6 min, 4° C.).
LC-MS/MS was used by the analysis department of the experimental organization to analyze the plasma samples of rats.
According to the data of blood drug concentration of the drug, the pharmacokinetic parameters AUC0→t, AUC0→∞, MRT0→∞, CMax, TMax, Vss, F, CL and T1/2 as well as their mean and standard deviation of the samples for test were calculated respectively by pharmacokinetic calculation software WinNonlin non-compartment model.
The main pharmacokinetic parameters of BLU-667, compound C2, compound C4 and compound C8 in plasma after intravenous and single oral administration of BLU-667, compound C2, compound C4 and compound C8 in SD rats were shown in Table 3

[2] = tested on: tumor patients with RET fusion and mutation; conditions: Phase I, cited from earlier work
Ba/F3-KIF5B-RET cells = molecular target: T1, Ba/F3-KIF5B-RET cells (Homo sapiens, UniProt P07949); experiment: Cell anti-proliferation experiment (CellTiter-Glo), Ba/F3-KIF5B-RET; format: cell-based; conditions: cell viability, 72 h
T1 construct: host or cells: Ba/F3 (BaF3 from RIKEN BRC CELL BANK); the other entry of the earlier key: KIF5B (P33176, Kinesin-1 heavy chain)
T1 sequence (P07949 713-1063 limits assumed): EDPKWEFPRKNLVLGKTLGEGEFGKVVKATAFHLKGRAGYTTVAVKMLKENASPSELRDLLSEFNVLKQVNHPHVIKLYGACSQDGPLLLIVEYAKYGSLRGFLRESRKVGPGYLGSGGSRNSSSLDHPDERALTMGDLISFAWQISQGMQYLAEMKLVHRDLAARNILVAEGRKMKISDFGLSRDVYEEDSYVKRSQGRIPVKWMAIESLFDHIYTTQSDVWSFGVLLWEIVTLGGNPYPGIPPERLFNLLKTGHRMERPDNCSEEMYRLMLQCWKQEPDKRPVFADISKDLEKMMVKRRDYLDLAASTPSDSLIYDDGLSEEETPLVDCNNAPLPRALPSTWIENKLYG
Description: (§1) Ba/F3-KIF5B-RET, Ba/F3-KIF5B-RET-V804L and Ba/F3-KIF5B-RET-V804M cells were constructed by PreceDo Pharmaceuticals Co., Ltd.
(§2) Ba/F3-KIF5B-RET, Ba/F3-KIF5B-RET-V804L and Ba/F3-KIF5B-RET-V804M medium: RPMI-1640+10% FBS+1% P/S.
(§3) A 1000× solution of the compound was prepared with DMSO, the compound was diluted to 20 times final concentration with a growth medium, and […] was added.
(§4) The suspended cells were rotated downward, resuscitated in the growth medium, and then counted with a cell counter. The cell suspension was diluted to the desired concentration in the growth medium. 95p L cell suspension was fed to a 96-well plate. 5 μL of 20× compound was added to the […], and the final DMSO concentration per well was 0.1%; incubated at 37° C. with 5% CO2 for 72 h
(§5) The plate was equilibrated to room temperature before measurement, 50 μl of CellTiter-Glo® reagent was added into each well, mixed on a shaker for 2 minutes, incubated at room temperature for 10 minutes, and recorded with Paradigm.
(§6) Cell viability was analyzed using Graphpad 7.0 software according to the formula Cell viability (CV %)=(RLU compound−RLU blank)/(RLU control−RLU blank)*100%, and the corresponding IC50 data were calculated as shown in Table 2

[3] = molecular target: T2, Ba/F3-KIF5B-RET-V804M cells (Homo sapiens, UniProt P07949, V804M); experiment: Cell anti-proliferation experiment (CellTiter-Glo), Ba/F3-KIF5B-RET-V804M; format: cell-based; conditions: cell viability, 72 h
T2 construct: host or cells: Ba/F3 (BaF3 from RIKEN BRC CELL BANK); the other entry of the earlier key: KIF5B (P33176, Kinesin-1 heavy chain)
T2 sequence (P07949 713-1063 V804M limits assumed): T1 sequence (P07949 713-1063 limits assumed) with V92M
Description: as §1, §2, §3, §4, §5, §6

[4] = molecular target: T3, Ba/F3-KIF5B-RET-V804L cells (Homo sapiens, UniProt P07949, V804L); experiment: Cell anti-proliferation experiment (CellTiter-Glo), Ba/F3-KIF5B-RET-V804L; format: cell-based; conditions: cell viability, 72 h
T3 construct: host or cells: Ba/F3 (BaF3 from RIKEN BRC CELL BANK); the other entry of the earlier key: KIF5B (P33176, Kinesin-1 heavy chain)
T3 sequence (P07949 713-1063 V804L limits assumed): T1 sequence (P07949 713-1063 limits assumed) with V92L
Description: as §1, §2, §3, §4, §5, §6

wild-type RET kinase = wild-type RET kinase (Homo sapiens, UniProt P07949); experiment: Enzyme activity test against wild-type RET kinase (33P-ATP filter-binding kinase activity assay); format: biochemical; conditions: ATP Km concentration, 10 concentrations
Description: A biological activity test experiment was conducted below for some compounds of the above Examples and Comparative Example.
[…]. The biological activity screening of the compounds will be determined repeatedly at 10 concentrations.
Each sample was prepared into a solution with a concentration of 10 mM.
The test compound was dissolved in 100% dimethyl sulfoxide to a specific concentration. Integra Viaflo Assist was used to assist DMSO for (continuous) dilution.
Kinase was added to the newly prepared basic reaction buffer
Adding any desired cofactors to the substrate solution.
Adding wild-type RET kinase into the substrate solution and gently mixing;
Acoustic technology (Echo 550; Nanoliter range) was used to feed the compounds in 100% of dimethyl sulfoxide into the kinase reaction mixture and incubated at room temperature for 20 minutes.
33P-ATP (specific activity 10 Ci/l) was added to the reaction mixture to start the reaction.
Incubated at room temperature for 2 hours
Radioactivity was detected by filter-binding method.
Kinase activity data was expressed as the percentage of remaining kinase activity in the test sample compared to the vehicle (dimethyl sulfoxide) reaction. Prism (GRAPHPAD software) was used to obtain IC50 value and curve-fitting.

[5] = PO, versus control compound (BLU-667)

Chain of wild-type RET kinase (P07949 29-1114): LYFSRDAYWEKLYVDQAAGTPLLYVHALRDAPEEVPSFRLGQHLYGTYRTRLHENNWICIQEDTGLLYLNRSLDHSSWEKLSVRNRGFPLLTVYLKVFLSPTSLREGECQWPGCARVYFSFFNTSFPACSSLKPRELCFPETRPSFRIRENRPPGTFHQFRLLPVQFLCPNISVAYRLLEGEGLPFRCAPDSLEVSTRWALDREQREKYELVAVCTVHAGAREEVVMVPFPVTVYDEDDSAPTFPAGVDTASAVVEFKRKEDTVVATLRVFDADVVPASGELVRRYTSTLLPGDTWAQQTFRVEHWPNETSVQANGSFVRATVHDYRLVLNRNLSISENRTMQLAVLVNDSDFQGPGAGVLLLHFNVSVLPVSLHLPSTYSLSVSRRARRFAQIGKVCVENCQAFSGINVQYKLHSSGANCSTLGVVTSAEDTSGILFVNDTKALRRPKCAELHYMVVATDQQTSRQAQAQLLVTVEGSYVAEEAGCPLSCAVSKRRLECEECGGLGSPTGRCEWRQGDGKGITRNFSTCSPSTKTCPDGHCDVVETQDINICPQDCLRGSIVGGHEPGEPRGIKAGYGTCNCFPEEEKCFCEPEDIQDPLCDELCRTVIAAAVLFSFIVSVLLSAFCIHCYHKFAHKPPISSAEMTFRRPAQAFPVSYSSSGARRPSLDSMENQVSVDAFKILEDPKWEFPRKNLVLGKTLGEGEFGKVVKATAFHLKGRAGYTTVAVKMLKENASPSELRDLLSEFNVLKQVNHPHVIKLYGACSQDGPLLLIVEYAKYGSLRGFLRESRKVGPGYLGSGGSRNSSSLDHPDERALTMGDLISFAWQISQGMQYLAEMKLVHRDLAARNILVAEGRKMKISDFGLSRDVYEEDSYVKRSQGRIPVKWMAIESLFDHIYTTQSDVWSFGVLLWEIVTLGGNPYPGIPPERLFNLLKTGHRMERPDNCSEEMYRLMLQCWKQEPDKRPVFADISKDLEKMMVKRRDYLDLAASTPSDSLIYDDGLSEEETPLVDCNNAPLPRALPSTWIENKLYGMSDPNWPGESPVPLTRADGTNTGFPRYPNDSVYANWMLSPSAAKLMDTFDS

Row | CL_obs ([1]; IV, 2 mg/kg) | F [1] | AUC(0-inf) ([1]; IV, 2 mg/kg) | AUC(0-t) ([1]; IV, 2 mg/kg) | half-life ([1]; IV, 2 mg/kg) | MRT ([1]; IV, 2 mg/kg) | Vd ([1]; IV, 2 mg/kg) | AUC(0-inf) ([1]; PO, 10 mg/kg) | AUC(0-t) ([1]; PO, 10 mg/kg) | Cmax ([1]; PO, 10 mg/kg) | Tmax ([1]; PO, 10 mg/kg) | half-life ([1]; PO, 10 mg/kg) | MRT ([1]; PO, 10 mg/kg) | pIC50 (wild-type RET kinase) | SMILES | pIC50 (Ba/F3-KIF5B-RET cells) | pIC50 [3] | pIC50 [4] | also measured
1 | 24.5 mL/min/kg | 61.14% | 1410 ng·h/mL | 1330 ng·h/mL | 5.52 h | 6.1 h | 8.53 L/kg | 4110 ng·h/mL | 4080 ng·h/mL | 632 ng/mL | 4 h | 3.36 h | 5.08 h |  | CO[C@]1(C(=O)N[C@@H](C)c2ccc(-n3cc(F)cn3)nc2)CC[C@H](c2nc(C)cc(Nc3cc(C)[nH]n3)n2)CC1 [BLU-667, reference compound] |  |  |  | ORR ([2]; patients with medullary thyroid carcinoma): 40%; ORR ([2]; patients with non-small cell lung cancer): 50%; overall remission rate (ORR) ([2]; tumor patients with RET fusion and mutation): 45%
2 | 8.67 mL/min/kg | 11.96% | 3900 ng·h/mL | 3850 ng·h/mL | 4.12 h | 4.89 h | 2.56 L/kg | 2320 ng·h/mL | 2300 ng·h/mL | 325 ng/mL | 2 h | 3.26 h | 6.05 h | 8.70 | CO[C@]1(C(=O)N[C@@H](C)c2ccc(-n3cc(F)cn3)nc2)CC[C@H](c2nc(Nc3cc(C)[nH]n3)ccc2C#N)CC1 [Compound C2] | 7.64 | 7.37 | 7.77 | 
3 | 7.67 mL/min/kg | 49.85% | 4430 ng·h/mL | 4390 ng·h/mL | 4.19 h | 3.74 h | 1.7 L/kg | 11000 ng·h/mL | 10900 ng·h/mL | 2460 ng/mL | 2 h | 3.18 h | 4.3 h | 8.99 | CO[C@]1(C(=O)N[C@@H](C)c2ccc(-n3cc(F)cn3)nc2)CC[C@H](c2nc(Nc3cc(C)[nH]n3)cc3cccnc32)CC1 [Compound C4] | 8.04 | 7.76 | 8.15 | maximum blood drug concentration (Cmax) increased compared with the control compound [1, 5]: 3-4 times; plasma exposure amount AUC increased compared with the control compound [1, 5]: 2-3 times
